{"source": "paper PMC3681751", "about": "“Identification of a Novel Antimicrobial Peptide from Human Hepatitis B Virus Core Protein Arginine-Rich Domain (ARD)” (PLoS Pathogens, 2013)", "key": {"[1]": {"test_system": "P. aeruginosa (ATCC 27853)", "format": "cell-based, Pseudomonas aeruginosa", "in_short": "(§1)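 Peptides were incubated with buffer-suspended bacteria (10^6 CFU/ml) for 3 hours at 37°C, then cells were plated overnight to find the MBC.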"}, "[2]": {"test_system": "P. aeruginosa (ATCC 9027)", "format": "cell-based, Pseudomonas aeruginosa", "in_short": "as §1"}, "P. aeruginosa NHRI-04": {"test_system": "P. aeruginosa NHRI-04", "format": "cell-based, Pseudomonas aeruginosa", "conditions": "NHRI-04, 3 h", "excerpt": "Clinical isolates of Pseudomonas aeruginosa (NHRI-01, NHRI-02 and NHRI-04) were obtained through the program of Taiwan Surveillance of Antimicrobial Resistance (TSAR), National Health Research Institutes (NHRI), Taiwan. Acinetobacter baumannii (ATCC 17989, ATCC 17978 CR, ATCC19606, ATCC 19606 CR, TCGH 45530 and TCGH 46709) were obtained from Tzu-Chi Buddhist General Hospital (TCGH) in Taiwan, and clinical isolates (TCGH 45530 and TCGH 46709) were identified using the Vitek system (Biomerieux Vitek, Inc., Hazelwood, MO, USA). A. baumannii is defined as multidrug-resistant, when the organism is resistant to piperacillin, piperacillin-tazobactam, ampicillin/sulbactam, imipenem, ceftazidime, gentamicin, amikacin, tetracycline, chloramphenicol, ciprofloxacin, and cotrimoxazole. Susceptibility to colistin was determined using the broth-dilution method, in accordance with the guidelines of the Clinical and Laboratory Standards Institute (CLSI).\nAll peptides were purchased from Yao-Hong Biotechnology Inc. (Taipei, Taiwan). Vendors provided data of peptide characterizations, including HPLC and Mass (data not shown). Antimicrobial activity was determined as described with some modifications as detailed below. Bacteria were grown overnight in Mueller–Hinton broth (Difco) at 37°C, and during the mid-logarithmic phase, bacteria were diluted to 10^6 CFU (colony formation unit)/ml in phosphate buffer (10 mM sodium phosphate and 50 mM sodium chloride, pH 7.2). Peptides were serially diluted in the same buffer. Fifty microliter (µl) of bacteria was mixed with fifty µl of peptides at varying concentrations followed by incubation at 37°C for 3 hours without shaking. At the end of incubation, bacteria were placed on Mueller-Hinton broth agar plates, and allowed growth at 37°C overnight for measurement of minimal bactericidal concentration (MBC). […] All peptides were tested in triplicate."}, "P. aeruginosa": {"test_system": "P. aeruginosa", "test": "Killing kinetics", "format": "cell-based, Pseudomonas aeruginosa", "conditions": "2 µM peptide (1×MBC), 37°C, triplicates", "description": "(§2) For measurement of killing kinetics, bacteria and peptides were prepared as described above. Fifty µl of bacteria were mixed with fifty µl of peptides at the concentrations corresponding to MBC and were incubated at 37°C. At the indicated time, bacteria were serially diluted and placed on Mueller-Hinton broth agar plates for the viability measurement."}, "S. aureus": {"test_system": "S. aureus", "test": "Killing kinetics", "format": "cell-based, Staphylococcus aureus", "conditions": "4 µM peptide (1×MBC), 37°C, triplicates", "description": "as §2"}, "E. coli": {"test_system": "E. coli", "test": "SYTOX Green uptake (membrane permeabilization)", "format": "cell-based, Escherichia coli", "conditions": "4 µM peptide; 10^7 CFU, 1 µM SYTOX Green, 37°C", "description": "Briefly, bacteria (10^7 CFU) were prepared and mixed with 1 µM SYTOX Green (Invitrogen) for 15 minutes in the dark. […] Melittin (Sigma), the major toxin of bee venom, was used as a positive control to provide maximal permeabilization."}, "[3]": {"test_system": "Staphylococcus aureus ATCC 19636", "test": "Sepsis survival model, i.p. inoculation", "format": "in vivo", "conditions": "4×10^6 CFU/mouse i.p., n = 10", "description": "(§3) Three-week old male ICR mice (19 to 21 g) were purchased from BioLASCO (Taiwan). Overnight culture of bacteria in BHI broth (Difco) was subcultured in fresh BHI broth to log phase. Inoculums were diluted in BHI broth to indicated densities. To test the acute toxicity of ARD peptide in vivo, ICR male mice were inoculated intraperitoneally (i.p.) with 10 and 20 mg/kg HBc147-183 in PBS, respectively. Each group contained 5 mice. After peptide injection, the number of dead mice was recorded daily for 7 days post-injection. To test the antimicrobial activity of the ARD peptide in vivo, all mice were inoculated i.p. with Staphylococcus aureus ATCC 19636 (4×10^6 CFU/mouse) in BHI broth. Peptide HBc147-183 (10 mg/kg) was administered i.p. at 1, 1.5 and 2 hours post-inoculation. PBS (10 ml/kg) control was administered at 1 hour post-inoculation. […] Mortality was monitored daily for 7 days post-inoculation. […] The mice were anesthetized first before transferring to the IVIS imaging system (IVIS spectrum), and luminescence was measured with an exposure time of 1 minutes or less. The image system measured the number of photons and translated the data to false color images that depicted the region of strong luminescence with red, moderate luminescence with yellow and green, and mild luminescence with blue. […] Total flux (RLU) of region of interest (ROI) was quantified by the IVIS imaging software."}, "[4]": {"test_system": "Staphylococcus aureus ATCC 19636", "test": "Bacterial load in infected mice", "format": "in vivo, mouse", "conditions": "10 mg/kg i.p. at 1 hour, sampled 4 hours post-inoculation, n = 5", "description": "as §3"}, "[5]": {"conditions": "ampicillin-resistant strain, 3 h at 37°C in phosphate buffer pH 7.2, triplicate"}}, "note": "Like-named read-outs stand apart in the source and are kept apart here. Residues, ends and D or L forms follow the SMILES beside them.", "data": [{"molecule": "CC(C)[C@H](NC(=O)[C@@H](NC(=O)[C@@H](N)[C@@H](C)O)C(C)C)C(=O)N[C@@H](CCCNC(=N)N)C(=O)N[C@@H](CCCNC(=N)N)C(=O)N[C@@H](CCCNC(=N)N)C(=O)NCC(=O)N[C@@H](CCCNC(=N)N)C(=O)N[C@@H](CO)C(=O)N1CCC[C@H]1C(=O)N[C@@H](CCCNC(=N)N)C(=O)N[C@@H](CCCNC(=N)N)C(=O)N[C@@H](CCCNC(=N)N)C(=O)N[C@H](C(=O)N1CCC[C@H]1C(=O)N[C@@H](CO)C(=O)N1CCC[C@H]1C(=O)N[C@@H](CCCNC(=N)N)C(=O)N[C@@H](CCCNC(=N)N)C(=O)N[C@@H](CCCNC(=N)N)C(=O)N[C@@H](CCCNC(=N)N)C(=O)N[C@@H](CO)C(=O)N[C@@H](CCC(N)=O)C(=O)N[C@@H](CO)C(=O)N1CCC[C@H]1C(=O)N[C@@H](CCCNC(=N)N)C(=O)N[C@@H](CCCNC(=N)N)C(=O)N[C@@H](CCCNC(=N)N)C(=O)N[C@@H](CCCNC(=N)N)C(=O)N[C@@H](CO)C(=O)N[C@@H](CCC(N)=O)C(=O)N[C@@H](CO)C(=O)N[C@@H](CCCNC(=N)N)C(=O)N[C@@H](CCC(=O)O)C(=O)N[C@@H](CO)C(=O)N[C@@H](CCC(N)=O)C(=O)N[C@@H](CS)C(=O)O)[C@@H](C)O", "note": "[HBc147-183] (H-TVVRRRGRSPRRRTPSPRRRRSQSPRRRRSQSRESQC-OH; N-terminus and C-terminus assumed)", "values": [{"measurement": "Antimicrobial activity, MBC", "setting": "[1]; ATCC 27853, 3 h, pH 7.2", "value": "2 to 4", "unit": "µM"}, {"measurement": "Antimicrobial activity, MBC", "setting": "[1]; [5]", "value": "9.18 to 18.36", "unit": "µg/mL"}, {"measurement": "MBC against P. aeruginosa", "setting": "[2]; ATCC 9027, 3 h", "value": "lower than 4 µM"}, {"measurement": "Antimicrobial activity, MBC", "setting": "[2]; ATCC 9027, 3 h, pH 7.2", "value": 2, "unit": "µM"}, {"measurement": "Antimicrobial activity, MBC", "setting": "[2]; [5]", "value": 9.18, "unit": "µg/mL"}, {"measurement": "MBC", "setting": "P. aeruginosa NHRI-04", "value": 18.36, "unit": "µg/mL"}, {"measurement": "Time to complete killing", "setting": "P. aeruginosa", "value": "≤ 20", "unit": "min"}, {"measurement": "Time to complete killing", "setting": "S. aureus", "value": 120, "unit": "min"}, {"measurement": "Membrane permeabilization (SYTOX Green uptake)", "setting": "E. coli", "value": "not able to induce membrane permeabilization"}, {"measurement": "Survival rate after 7 days", "setting": "[3]; 10 mg/kg i.p. at 1.5 h post-inoculation", "value": 70, "unit": "%"}, {"measurement": "Survival rate after 7 days", "setting": "[3]; 10 mg/kg i.p. at 2 h post-inoculation (peak of bacterial load in blood)", "value": 40, "unit": "%"}, {"measurement": "Bacterial load in blood, liver and spleen", "setting": "[4]", "value": "~10^4 cfu/ml"}, {"measurement": "Reduction of bacterial load in blood, liver and spleen vs PBS control", "setting": "[4]; P<0.01", "value": 100, "unit": "fold"}]}]}
